Test results reported in patent publication US10226455B2 (priority 2014, dated 2019).
Where two headings read alike, the source gives them in different places.

Tests used:
[1] = cited from earlier work
[2] = test system: UGA2004 H. contortus isolate eggs; experiment: Larval development assay, sensitization to thiabendazole; design: species or system Haemonchus contortus
Experimental: TBZ was provided in a range of concentrations to permit evaluation of the dose response to TBZ in the presence of the pgp inhibitors. After incubation of the eggs for seven days, the number of stage 3 (“L3”) larvae that developed with each treatment was counted.

[3] = test system: multidrug resistant Haemonchus contortus isolate UGA2004 L3 stage larvae; settings: for inhibition of larval motility compared with verapamil: with IVR, 10 or 20 uM RTI-79, 20 uM RTI-176, 10 uM verapamil
Experimental: Each well contained a 300 uL solution containing approximately 75 L3 stage larvae, IVR, and pgp inhibitor or control. IVR was provided in serially diluted concentrations of 50, 25, 12.5, 6.25, 3.125, 1.56, 0.78 or 0.39 uM, to permit evaluation of the dose response to IVR in the presence of the pgp inhibitors. Inhibition of larval motility was determined by failure of the incubated larvea to move when stimulated by light exposure after incubation.

[4] = test system: P. Falciparum; experiment: Chloroquine sensitization in chloroquine-resistant P. Falciparum (survival of variants); format: cell-based
Excerpt: Quinine and quinine derivatives including chloroquine inhibit the Plasmodium parasites, including P. Falciparum, by accumulating in food vacuoles and causing accumulation of cytotoxic heme, thereby poisoning the parasite.

[5] = test system: P. Falciparum; settings: read-out: previously-reported IC50 of chloroquine, cited from earlier work
[6] = test system: P-gp; settings: previously demonstrated; cited from earlier work
[7] = test system: P. Falciparum; experiment: In vitro inhibition of P. falciparum variants, DAPI fluorescence imaging assay in erythrocyte cultures; format: cell-based
Excerpt: Sensitivity of the P. Falciparum variants to (i.e. inhibition of the parasites by) RTI-79chloroquine, or rifamycin was quantitated via assay as previously described. Duffy, S. and V. M. Avery, Development and optimization of a novel 384-well anti-malarial imaging assay validated for high-throughput screening. Am J Trop Med Hyg, 2012. 86(1): p. 84-92. Inhibition of P. Falciparum with various concentrations of the inhibitors was quantified by measuring DAPI fluorescence of parasite DNA in erythrocyte cultures.
Decreased DAPI staining quantified as relative light units (“RLU”), is observed with parasite inhibition in the assays.

[8] = Time to maximal plasma concentration / tissue absorption after administration
Excerpt: In certain embodiments, the rifamycin, rifamycin derivative, rifampicin, rifampicin derivative, or pharmaceutically acceptable salt, hydrate, or prodrug thereof, or combination thereof, can be administered in a method that matches the pharmokinetics of the composition to that of the antiparasitic drug also administered to the recipient.

In the case of `CO[C@H]1/C=C/O[C@@]2(C)Oc3c(C)c(O)c4c(c3C2=O)C2=NC3(CCN(CC(C)C)CC3)NC2=C(NC(=O)/C(C)=C\C=C\[C@H](C)[C@H](O)[C@@H](C)[C@@H](O)[C@@H](C)[C@H](OC(C)=O)[C@@H]1C)C4=O` [rifabutin], the “initial half-life of plasma elimination” value ([1]; biphasic elimination) is listed as “approximately 4 hours”, the “mean (±SD) peak plasma concentration (Cmax)” value ([1]; in vivo, po, 300 mg) is listed as 375 (±267) ng/mL and the “peak plasma concentration (Cmax), range” value ([1]; in vivo, po, 300 mg) is listed as 141 to 1033 ng/mL.

For “11-deoxy-11-amino-4-deoxy-3,4[2-spiro-[1-(isobutyloxycarbonyl)-piperidin-4-yl]]-(1H)-imidazo-(2,5-dihydro)rifamycin S [RTI-176]”, the “shift of TBZ dose response curve” value ([2]; relative to both verapamil and the 1% DMSO control, FIG. 3B) was “shifted the TBZ dose response curve to the left”, the “shift of the IC50 of TBZ” value ([2]; seven days incubation, relative to control and verapamil) was 3.79 fold and the “shift of IVR dose response curve” value ([3]; relative to the 1% DMSO control, FIG. 3A) was “shifted the IVR dose response curve to the left”. The “inhibition of larval motility compared with verapamil” value [3] was “more potent inhibition of larval motility”.

In the case of `CCN(CC)CCCC(C)Nc1ccnc2cc(Cl)ccc12` (centres unmarked) [chloroquine], the parasite survival ([4]; 3D7 variant, chloroquine at or greater than IC50) is listed as “death of the parasite”, the parasite survival ([4]; chloroquine-resistant variants, chloroquine alone at or below the 3D7 IC50) is listed as “survive” and the IC50 ([5]; chloroquine-resistant Dd2 variant) is listed as 0.1 µM. The IC50 ([5]; chloroquine-resistant K1 variant) was 0.255 µM and the IC50 ([5]; chloroquine-sensitive 3D7 variant) was ~0.01 µM.

In the case of “4-deoxy-3,4[2-spiro-[1-(isobutyloxycarbonyl)-piperidin-4-yl]]-(1H)-imidazo-(2,5-dihydro)rifamycin S [RTI-79]”, the “drug efflux from cells” value [6] is given as “prevent drug efflux from cells”, the “inhibition of strains (DAPI staining, RLU)” value ([7]; all strains, FIGS. 1A-1C) is given as “Dose-dependent inhibition of all strains” and the IC50 ([7]; all variants (3D7, Dd2, K1; chloroquine-sensitive and -resistant), read-out: observed IC50) is given as ~0.625 µM. The “inhibition of larval motility compared with verapamil” value [3] was “more potent inhibition of larval motility” and the “time to maximal plasma concentration” value [8] was ≤ 3 h.
